System: SARS-CoV-2 HR1 target mimic peptide HR1P
Type: binding

Structure (SMILES) | Tm of complex with HR1P (binding stability)
CC[C@H](C)[C@H](NC(=O)[C@H](Cc1ccc(O)cc1)NC(=O)[C@H](CO)NC(=O)[C@H](CCC(=O)O)NC(=O)[C@H](CC(N)=O)NC(=O)[C@H](CC(C)C)NC(=O)[C@H](C)NC(=O)[C@H](CCCCN)NC(=O)[C@@H](NC(=O)[C@@H](NC(=O)[C@H](CCC(N)=O)NC(=O)[C@H](CCC(N)=O)NC(=O)[C@H](CC(C)C)NC(=O)[C@H](CO)NC(=O)[C@H](CC(C)C)NC(=O)[C@H](CCSC)NC(=O)[C@H](CCC(=O)O)NC(=O)[C@H](Cc1ccc(O)cc1)NC(=O)[C@@H](NC(=O)[C@H](CC(C)C)NC(=O)[C@H](CC(=O)O)NC(=O)[C@H](CC(C)C)NC(=O)[C@H](CC(C)C)NC(=O)[C@@H](NC(=O)[C@@H](NC(=O)[C@H](CC(N)=O)NC(=O)[C@@H](NC(=O)[C@H](CCC(N)=O)NC(=O)[C@@H](NC(=O)[C@H](CC(C)C)NC(=O)[C@H](CO)NC(C)=O)[C@@H](C)O)[C@@H](C)CC)[C@@H](C)O)[C@@H](C)O)[C@@H](C)O)C(C)C)C(C)C)C(=O)N[C@@H](CC(=O)O)C(=O)N[C@@H](CC(C)C)C(=O)N[C@@H](CCCCN)C(=O)N[C@@H](CCC(=O)O)C(=O)N[C@@H](CC(C)C)C(=O)NCCOCCOCCOCCOCCOCCOCCOCCOCCC(=O)N[C@@H](CCCCNC(=O)CCC(=O)O[C@H]1CC[C@@]2(C)C(=CC[C@H]3[C@@H]4CC[C@H]([C@H](C)CCCC(C)C)[C@@]4(C)CC[C@@H]32)C1)C(N)=O [MERS-LP] | 47 °C
CC[C@H](C)[C@H](NC(=O)[C@H](C)NC(=O)[C@H](CCC(=O)O)NC(=O)[C@H](CCC(N)=O)NC(=O)[C@H](CC(C)C)NC(=O)[C@H](CCCNC(=N)N)NC(=O)[C@H](CC(N)=O)NC(=O)[C@H](CCSC)NC(=O)[C@H](CCC(=O)O)NC(=O)[C@H](CC(=O)O)NC(=O)[C@H](CCC(N)=O)NC(=O)[C@H](CC(C)C)NC(=O)[C@H](CC(=O)O)NC(=O)[C@H](CC(C)C)NC(=O)[C@H](Cc1ccccc1)NC(=O)[C@@H](NC(=O)[C@@H](NC(=O)[C@H](CC(N)=O)NC(=O)[C@@H](NC(=O)[C@H](Cc1ccc(O)cc1)NC(=O)[C@H](CC(=O)O)NC(=O)[C@H](CC(C)C)NC(=O)[C@H](CO)NC(C)=O)[C@@H](C)CC)C(C)C)[C@@H](C)O)C(=O)N[C@@H](CCCCN)C(=O)N[C@H](C(=O)N[C@@H](CC(C)C)C(=O)N[C@@H](CC(N)=O)C(=O)N[C@@H](CCC(N)=O)C(=O)N[C@@H](CO)C(=O)N[C@@H](Cc1ccc(O)cc1)C(=O)N[C@H](C(=O)N[C@@H](CC(N)=O)C(=O)N[C@@H](CC(C)C)C(=O)N[C@@H](CCCCN)C(=O)N[C@@H](CC(=O)O)C(=O)N[C@H](C(=O)NCCOCCOCCOCCOCCOCCOCCOCCOCCC(=O)N[C@@H](CCCCNC(=O)CCC(=O)O[C@H]1CC[C@@]2(C)C(=CC[C@H]3[C@@H]4CC[C@H]([C@H](C)CCCC(C)C)[C@@]4(C)CC[C@@H]32)C1)C(N)=O)[C@@H](C)CC)[C@@H](C)CC)C(C)C [OC43-LP] | 63 °C
